Results from US20120231015A1, “FRAGILE X MENTAL RETARDATION PROTEIN (FMRP), COMPOSITIONS, AND METHODS RELATED THERETO” (EMORY UNIVERSITY, priority 2009, published 2012).
“Also recorded” adds a separate entry of the source.

Experiments:
[1] = tested on: cortical SNS; test: Metabolic labeling of cortical SNS with [35S]methionine (synaptic translation rates); type: cell-based, mouse; conditions: for translation rates (amino acid incorporation): antagonist 50 μM; for translation rates ([35S] incorporation in 5 min): antagonist 10 μM
Method: (§1) Cortical SNS were prepared as described previously (Muddashetty et al., 2007) and treated with the indicated antagonists or solvent for 5 min at 37° C., for some experiments followed by DHPG (100 μM) for 15 min at 37° C. as indicated, and with puromycin (2 mM) for 30 min at 37° C. Metabolic labeling was performed with 100 μCi Pro-Mix, L-(35S) in vitro cell labeling mix (GE Healthcare) for 5 min. Triplicate samples from time point 0 and 5 min were washed once in homogenization buffer, followed by lysis (100 mM Tris-HCl, pH 7.4, 150 mM NaCl, 0.5% deoxycholate, and 1% Triton X-100, supplemented with proteinase inhibitors) and TCA precipitation. 35S-incorporation levels were estimated by scintillation counting.

[2] = tested on: p110beta; test: p110beta protein levels by Western blot in cortical SNS; type: cell-based, mouse; conditions: DHPG 15 min, 50 μM
Method: SDS-PAGE and Western blots were performed as described previously (Muddashetty et al., 2007) and quantified using NIH ImageJ. Signal intensities of p110beta- and FMRP-specific bands were normalized to tubulin signal on the same blot. Signal intensities of phospho-proteins were normalized to total levels of the respective protein on the same blot. For this purpose, Western blots were stripped after detection with the phospho-specific antibodies using 100 mM β-mercaptoethanol and 2% SDS in 62.5 mM Tris-HCl, pH 6.8, at 50° C. for 30 min and, after extensive washing, detected with the respective antibody specific for the total protein.
as §1, with “[…],” for “for some experiments followed by DHPG (100 μM) for 15 min at 37° C. as indicated,”

[3] = tested on: PDK1; conditions: hippocampal slices from Fmr1 KO mice; cited from earlier work
[4] = tested on: p110beta mRNA; test: p110beta mRNA in polysomal fractions of sucrose gradients, cortical SNS; type: cell-based, mouse
Method: Gradient preparation, centrifugation, fractionation, RNA purification, and qRT-PCRs were performed as described previously (Muddashetty et al., 2007).
as §1, with “[…],” for “for some experiments followed by DHPG (100 μM) for 15 min at 37° C. as indicated,”

[5] = tested on: PI3K (p110beta); test: In vitro PI3K assay with immunoprecipitated p110beta from treated cortical synaptoneurosomes (SNS); type: cell-based, mouse
Method: In vitro PI3K assays were performed as described previously (Ye et al., (2000) Cell 103:919-930) using p110beta antibody. In vitro extracellular signal-regulated kinase (ERK) activity assays were performed using the p44/42 MAP Kinase Assay kit from Cell Signaling Technology according to the manual. HEK293T cells were cultured in DMEM supplemented with 10% FBS. Fmr1-specific siRNA was transfected using LF2000 (Invitrogen) according to the manual. At 48 h after transfection, cells were scraped from the dish with PBS, divided into two equal parts for PI3K and ERK activity assays, respectively. […] Cortical synaptoneurosomes (SNS) were prepared as described previously (Muddashetty et al., (2007) J Neurosci 27:5338-5348.). SNS were split in two equal parts for PI3K and ERK activity assays. Cells and SNS were lysed in kinase assay buffers (for PI3K assay: 50 mM Tris-HCl, pH 7.4, 40 mM NaCl, 1 mM EDTA, 0.5% Triton X-100, 1.5 mM Na3VO4, 50 mM NaF, 10 mM sodium pyrophosphate, and 10 mM sodium β-glycerol phosphate, supplemented with proteinase inhibitors; for ERK activity assay: lysis buffer provided by Cell Signaling Technology). Lysates were cleared by centrifugation, and protein concentrations were determined by the Bradford method. For both kinase assays, the same amount of protein was used for wild-type (WT) and Fmr1 KO SNS or sifmr1 knockdown (KD) and sictr HEK293T cells, respectively. For measuring PI3K activity following various treatments, SNS were incubated for 10 min at 37° C. with either 100 μM (S)-3,5-dihydroxyphenylglycine (DHPG) or 10 μM 2-methyl-6-(phenylethynyl)-pyridine (MPEP) or for 1 h at 37° C. with tat-mGluR5-CT or tat-mGluR5-MUT peptides (5 μM) before lysis. For PI3K assays with cortical neurons, cells at 11d in vitro (DIV) were transfected with 10 μl of control adenovirus or adenovirus carrying short-hairpin PIKE-L (as described previously by Tang et al., (2008) Nat Cell Biol 10:698-706.) for 48 h. PI3K assays were performed with 300 μg of protein as described above. To confirm PIKE-L knockdown, 80 μg of protein was used for Western blot analyses using anti-PIKE-L antibody.

[6] = tested on: primary hippocampal neurons; test: Constitutive AMPAR internalization assay; type: cell-based, mouse; conditions: WT neurons
[7] = tested on: rat hippocampal neurons; conditions: siRNA-mediated FMRP deficiency; cited from earlier work

N[C@@H](CCCP(=O)(O)O)C(=O)O [APV]
translation rates (amino acid incorporation) ([1]; Fmr1 KO SNS): failed to reduce augmented translation in KO | translation, genotype dependence of effect ([1]; WT and Fmr1 KO SNS, APV 50 μM): affected translation similarly across genotypes

N[C@H](C(=O)O)c1cc(O)cc(O)c1 [DHPG, (S)-3,5-dihydroxyphenylglycine]
p110beta protein expression ([2]; Fmr1 KO SNS): occluded; also recorded: does not increase protein expression | p110beta protein levels ([2]; WT SNS): led to increased p110beta protein levels; also recorded: increases p110beta protein levels | phosphorylation of PDK1 [3]: does not induce the phosphorylation of PDK1 | p110beta mRNA in puromycin-sensitive polysomal fractions (translation) ([4]; Fmr1 KO SNS, DHPG 15 min, 50 μM): occluded | p110beta mRNA in puromycin-sensitive polysomal fractions ([4]; WT SNS, DHPG 15 min, 50 μM): induced a significant shift of p110beta mRNA into puromycin-sensitive fractions; also recorded: leads to a shift of p110beta mRNA into puromycin-sensitive fractions | DHPG-induced translational activation ([1]; Fmr1 KO SNS, no antagonist): occluded | PI3K activity ([5]; Fmr1 KO SNS, DHPG 100 μM, 10 min): failed to activate PI3K; also recorded: significant reduction of PI3K activity; also recorded: decreased PI3K activity | PI3K activity ([5]; WT SNS, DHPG 100 μM, 10 min): twofold increase

O=c1cc(N2CCOCC2)oc2c(-c3ccccc3)cccc12 [LY294002, 2-(4-morpholinyl)-8-phenyl-1(4H)-benzopyran-4-one]
translation rates (amino acid incorporation) ([1]; Fmr1 KO SNS): could specifically rescue the excessive synaptic translation; also recorded: significantly reduced amino acid incorporation rates | constitutive endocytosis of AMPARs in distal dendrites (median) ([6]; LY294002 50 μM for 1 h): 35.3

O=c1cc(N2CCNCC2)oc2c(-c3ccccc3)cccc12 [LY303511, 2-(1-piperazinyl)-8-phenyl-4H-1-benzopyran-4-one]
translation rates ([1]; SNS, inactive analog of LY294002): did not show any effect; also recorded: did not alter translation rates

Cc1cc(C(=O)O)ccc1[C@H](N)C(=O)O [LY367385]
translation rates ([35S] incorporation in 5 min) ([1]; Fmr1 KO SNS): reduced synaptic Fmr1 KO translation; also recorded: significantly decreased translation rates

Cc1cccc(C#Cc2ccccc2)n1 [MPEP, 2-methyl-6-(phenylethynyl)-pyridine]
levels of internalized AMPARs [7]: rescued increased levels of internalized AMPARs | translation rates ([35S] incorporation in 5 min) ([1]; Fmr1 KO SNS): reduced synaptic Fmr1 KO translation; also recorded: significantly decreased translation rates | PI3K activity ([5]; Fmr1 KO SNS, MPEP 10 μM, 10 min at 37° C.): significantly reduced PI3K function; also recorded: significantly reduces PI3K activity | PI3K activity ([5]; WT SNS, MPEP 10 μM, 10 min at 37° C.): no significant effect

N#CC(=C(N)Sc1ccccc1N)C(C#N)=C(N)Sc1ccccc1N [U0126, 1,4-diamino-2,3-dicyano-1,4-bis(o-aminophenylmercapto)butadiene]
DHPG-induced translational activation after antagonist pretreatment ([1]; Fmr1 KO SNS, DHPG 100 μM, 15 min): did not rescue DHPG-stimulated translation; also recorded: but not by ERK1/2 inhibition | DHPG-induced translational activation after antagonist pretreatment ([1]; WT SNS, DHPG 15 min, 100 μM): abolished DHPG-induced translational increase; also recorded: abolish | translation rates, genotype dependence of effect ([1]; WT and Fmr1 KO SNS, U0126 20 μM): reduced protein synthesis levels independently of genotype to the same extent; also recorded: did not show a genotype-specific effect on translation rates | constitutive endocytosis of AMPARs in distal dendrites (median) ([6]; U0126 20 μM for 1 h): 43.8

COc1ccc(C[C@H](N)C(=O)N[C@H]2[C@@H](O)[C@H](n3cnc4c(N(C)C)ncnc43)O[C@@H]2CO)cc1 [puromycin]
association of p110beta mRNA with synaptoneurosomal polysomes ([4]; SNS, puromycin 2 mM, 30 min at 37° C.): sensitive to puromycin treatment
